Publication PMC7099630 (Bioanalysis, 2016)

How the values were obtained:
[1] = PK study in Wuzhishan miniature pigs after a single oral dose, plasma by HILIC-MS/MS; type: in vivo, Wuzhishan miniature pig; conditions: average, single oral dose 0.2 g
Method: Two ordinary grade, healthy, Wuzhishan miniature pig (6–8 months old, 7–9 kg) were purchased from Pearl Laboratory Animal Sci. & Tech. Co., Ltd (Dongguan, China) and maintained on standard food and water. The pigs were housed in individual cages and identified by ear tags. […] Blood samples (1.5 ml) were collected in heparinized tubes via the precaval or pelvic vein before medication and 0.5, 1, 2, 4, 6, 8, 12, 24, 36, 48, 72, 96 and 120 h after drug administration. All blood samples were immediately centrifuged at 2000 × g for 15 min (Centrifuge 5418, Eppendorf) and then stored at −70°C before analysis. The maximum plasma concentration (Cmax) and time of occurrence (tmax) were read directly from the concentration-time curve. Other PK parameters were calculated with DAS 3.2.4 software, using a noncompartmental model.

[2] = Stability of chloroquine in miniature pig plasma QC samples under different storage conditions; type: in vitro ADME
Method: Mimic pig plasma samples at LQC and HQC levels were analyzed along with freshly spiked calibration standards to obtain calculated concentrations.
Benchtop stability was evaluated by allowing QC samples to stand for 6 h prior to preparation. Unextracted QC samples were stored at -20°C for 40 days before extraction to test long-term stability. To analyze freeze–thaw stability, QC samples were stored at -20°C and then allowed to thaw to room temperature for three cycles. Processed QC samples were allowed to stand in the autosampler for 24 h before analysis to determine whether an occasional delay in injection, or reinjection of extracted samples, would lead to degradation.

[3] = Stock solution stability of chloroquine; type: physicochemical; conditions: 40 days at -20°C vs freshly prepared, read-out: Solution stability (40 day), Recovery (mean ± SD, %)
[4] = Stability of chloroquine in miniature pig plasma QC samples under different storage conditions; type: in vitro ADME; conditions: miniature pig plasma (spiked QC samples), plasma QC standing prior to preparation, read-out: Benchtop stability (8 h), Recovery (mean ± SD, %)
[5] = healthy miniature pigs, noncompartmental model

AUC(0-inf) ([1]; Wuzhishan miniature pig, pig, plasma, healthy miniature pigs, noncompartmental model): 380 ng·h/mL
half-life ([1]; Wuzhishan miniature pig, pig, plasma, healthy miniature pigs, noncompartmental model, read-out: elimination t1/2 (converted)): 16.9 h
Cmax ([1]; Wuzhishan miniature pig, pig, healthy miniature pigs (two animals), plasma): 15 ng/mL
Tmax ([1]; Wuzhishan miniature pig, pig, healthy miniature pigs, plasma): 3 h
CL/F [1, 5]: 54.15 L/h
V/F [1, 5]: 1543.82 L
stability of prepared samples after storage in the autosampler ([2]; 24 h in autosampler): stable
time stable during bench top preparation ([2]; miniature pig plasma): at least 6 h
time stable on storage at −20°C ([2]; miniature pig plasma): at least 40 days
recovery at 75 ng/ml ([2]; miniature pig, miniature pig plasma (spiked QC samples), HQC (75 ng/ml), -20°C to room temperature, three cycles, read-out: Freeze–thaw stability (3 cycles), Recovery (mean ± SD, %)): 106 ± 1.07%
recovery at 40 day, 75 ng/ml ([2]; miniature pig, miniature pig plasma (spiked QC samples), HQC (75 ng/ml), unextracted plasma QC stored at -20°C for 40 days, read-out: Long-term stability (40 day), Recovery (mean ± SD, %)): 104.3 ± 1.04%
recovery at 3 ng/ml ([2]; miniature pig, miniature pig plasma (spiked QC samples), LQC (3 ng/ml), -20°C to room temperature, three cycles, read-out: Freeze–thaw stability (3 cycles), Recovery (mean ± SD, %)): 106 ± 9.74%
recovery at 40 day, 3 ng/ml ([2]; miniature pig, miniature pig plasma (spiked QC samples), LQC (3 ng/ml), unextracted plasma QC stored at -20°C for 40 days, read-out: Long-term stability (40 day), Recovery (mean ± SD, %)): 106 ± 3.35%
recovery at 24 h, 75 ng/ml ([2]; miniature pig, HQC (75 ng/ml), processed samples in autosampler for 24 h, read-out: Processed stability (24 h), Recovery (mean ± SD, %)): 105.7 ± 0.34%
recovery at 24 h, 3 ng/ml ([2]; miniature pig, LQC (3 ng/ml), processed samples in autosampler for 24 h, read-out: Processed stability (24 h), Recovery (mean ± SD, %)): 98.9 ± 1.08%
recovery at 40 day, 75 ng/ml ([3]; HQC (75 ng/ml)): 103 ± 2.46%
recovery at 40 day, 3 ng/ml ([3]; LQC (3 ng/ml)): 102 ± 6.75%
recovery at 8 h, 75 ng/ml ([4]; HQC (75 ng/ml)): 103.5 ± 1%
recovery at 8 h, 3 ng/ml ([4]; LQC (3 ng/ml)): 104 ± 1.33%
SMILES: CCN(CC)CCCC(C)Nc1ccnc2cc(Cl)ccc12 (stereo not shown) [chloroquine, N’-(7-chloro-4-quinolyl)-N,N-diethyl-pentane-1,4-diamine]
